Here are results for two molecules from paper PMC13195121, “A plasmid toolbox for the easy autodisplay of recombinant proteins and its optimization” (Communications Biology, 2026).

Counter-ions that a name gives are not always drawn.

Assay [1] deals with T1, β-Gluc (β-glucosidase BglA LYTH) (Caldicellulosiruptor saccharolyticus, UniProt P10482).
T1 construct: His6 tag and fXa site
Briefly: whole-cell absorbance assay at […] nm, surface-displaying E. coli. The class given is cell-based. To be noted: 5 mM pNPG; 0.1 M Na-citrate pH 6; 55 °C.

A further assay has as its target T2, laccase CotA (Heyndrickxia coagulans, UniProt A0AAN0WB15).
T2 construct: gene SB48_HM08orf01352; N-terminal His6 tag and fXa site; codon-optimized gene
T2 sequence (A0AAN0WB15 1-522): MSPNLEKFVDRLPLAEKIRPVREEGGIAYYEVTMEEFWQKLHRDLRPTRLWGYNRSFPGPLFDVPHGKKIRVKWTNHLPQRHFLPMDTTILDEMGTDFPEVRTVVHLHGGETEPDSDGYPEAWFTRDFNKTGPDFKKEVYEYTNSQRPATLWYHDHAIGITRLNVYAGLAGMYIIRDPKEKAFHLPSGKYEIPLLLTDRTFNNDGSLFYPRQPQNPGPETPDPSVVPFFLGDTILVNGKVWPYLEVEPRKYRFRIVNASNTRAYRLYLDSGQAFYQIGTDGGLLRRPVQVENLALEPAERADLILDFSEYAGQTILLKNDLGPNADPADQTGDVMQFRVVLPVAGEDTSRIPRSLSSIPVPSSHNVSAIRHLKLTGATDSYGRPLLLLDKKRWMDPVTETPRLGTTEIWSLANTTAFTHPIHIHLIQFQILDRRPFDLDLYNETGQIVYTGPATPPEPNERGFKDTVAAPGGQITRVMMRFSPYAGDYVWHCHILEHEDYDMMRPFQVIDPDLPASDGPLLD
Briefly: whole-cell absorbance assay at […] nm, surface-displaying P. putida. To be noted: 0.1 M Na-acetate pH 5.6; 30 °C; cells grown with CuCl2. In kind it is cell-based.

T1 sequence (P10482 whole entry): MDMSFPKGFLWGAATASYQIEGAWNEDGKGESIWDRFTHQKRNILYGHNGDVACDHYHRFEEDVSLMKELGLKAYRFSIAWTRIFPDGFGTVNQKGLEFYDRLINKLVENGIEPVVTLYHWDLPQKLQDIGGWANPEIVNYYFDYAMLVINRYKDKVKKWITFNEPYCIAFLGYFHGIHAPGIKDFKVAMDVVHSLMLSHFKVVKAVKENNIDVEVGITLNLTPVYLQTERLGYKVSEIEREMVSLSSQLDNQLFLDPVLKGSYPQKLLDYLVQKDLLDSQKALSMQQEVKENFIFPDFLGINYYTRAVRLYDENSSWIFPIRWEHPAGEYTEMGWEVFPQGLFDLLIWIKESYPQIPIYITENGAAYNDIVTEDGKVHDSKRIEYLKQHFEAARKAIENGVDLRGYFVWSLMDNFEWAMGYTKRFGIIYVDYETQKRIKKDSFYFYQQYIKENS

Take `O=[N+]([O-])c1ccc(O[C@@H]2O[C@H](CO)[C@@H](O)[C@H](O)[C@H]2O)cc1` [4-nitrophenyl-β-D-glucopyranoside]: in assay [1], the “whole-cell absorbance assay at 405 nm, surface-displaying E. coli” value is on record as “activity assay with 4-nitrophenyl-β-D-glucopyranoside (pNPG) as substrate”.
As to `CCn1c(=NN=c2sc3cc(S(=O)(=O)O)ccc3n2CC)sc2cc(S(=O)(=O)O)ccc21` [ABTS, 2,2’-Azino-bis [3-ethylbenzothiazoline-6-sulfonic acid]-diammonium salt], the “whole-cell absorbance assay at 420 nm, surface-displaying P. putida” value on laccase CotA was “The substrate ABTS is converted by the laccase to ABTS^•+”.
